# Data reported in patent US8895544B2, “Indazoles” (Pfizer Limited, priority 2011, dated 2014).
# Counter-ions that a name gives are not always drawn.
# Experiments:
# JAK3 enzyme = JAK3 enzyme (Homo sapiens (Human), UniProt P52333); assay: JAK3 isolated enzyme high ATP Caliper endpoint assay; type: biochemical; details: 400 μM ATP, read-out: JAK-3 IC50
# Procedure: JAK3 Isolated Enzyme High ATP Caliper Endpoint Assay
# 4 mM stock solutions of test compounds are prepared and serially diluted in 100% DMSO. […] Greiner 384 well plates are prepared containing 400 nl of serially diluted compound, standard and HPE/ZPE. Final top assay concentration is 80 μM as the assay dilution factor is fifty.
# JAK3 enzyme stock is diluted to 2 nM in assay buffer (10 mM HEPES free acid pH 7.5, 10 mM HEPES free base pH 7.5, 10 mM MgCL2, 0.0005% Tween-20, 0.01% BSA) containing 2 mM DTT (all supplied by Sigma). ATP is made up at 10 mM stock in sterile water and diluted to 800 μM in assay buffer. Peptide (American peptide company) is made up at 30 mM in 100% DMSO and diluted to 3 μM in assay buffer.
# Assays are performed in Greiner polypropylene 384 well plates. Following compound preparation within the plate 10 μl of enzyme in assay buffer containing DTT is added using a Multidrop Micro. Final assay concentration of enzyme is 1 nM. Compound and enzyme are pre-incubated for 60 minutes at room temperature using low evaporation lids before addition of 10 μl ATP/peptide mixture in assay buffer using a Multidrop Micro. […] Plates are foil sealed and incubated for a further 60 minutes at room temperature. Stop solution is added to the plates (20 μl/well) using a Multidrop Micro and plates are loaded onto the Caliper EZReader II. Data is generated by the shift in mobility of non-phosphorylated peptide substrates and phosphorylated products by electrophoresis within a chip and detected via LED induced fluorescence. Data is analysed using LabChip EZReader software which calculates the relative heights of the substrate and product peaks and reports product/product plus substrate peak ratio. Test compound data are subsequently expressed as percentage inhibition defined by HPE and ZPE values for each plate. Percentage inhibition in the presence of test compound is plotted against compound concentration on a log scale to determine an IC50 from the resultant sigmoid curve.
# JAK1 enzyme = JAK1 enzyme (Homo sapiens (Human), UniProt P23458); assay: JAK1 isolated enzyme high ATP Caliper endpoint assay; type: biochemical; details: 2.5 mM ATP, read-out: JAK-1 IC50;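 also: enzyme at 10 nM preincubated with inhibitor 30 min, then kinase reaction 120 min at room temperature, peptide phosphorylation read by microfluidic mobility shift with fluorescence, inhibition relative to HPE and ZPE plate controls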
# JAK1 enzyme, sequence (P23458 whole entry): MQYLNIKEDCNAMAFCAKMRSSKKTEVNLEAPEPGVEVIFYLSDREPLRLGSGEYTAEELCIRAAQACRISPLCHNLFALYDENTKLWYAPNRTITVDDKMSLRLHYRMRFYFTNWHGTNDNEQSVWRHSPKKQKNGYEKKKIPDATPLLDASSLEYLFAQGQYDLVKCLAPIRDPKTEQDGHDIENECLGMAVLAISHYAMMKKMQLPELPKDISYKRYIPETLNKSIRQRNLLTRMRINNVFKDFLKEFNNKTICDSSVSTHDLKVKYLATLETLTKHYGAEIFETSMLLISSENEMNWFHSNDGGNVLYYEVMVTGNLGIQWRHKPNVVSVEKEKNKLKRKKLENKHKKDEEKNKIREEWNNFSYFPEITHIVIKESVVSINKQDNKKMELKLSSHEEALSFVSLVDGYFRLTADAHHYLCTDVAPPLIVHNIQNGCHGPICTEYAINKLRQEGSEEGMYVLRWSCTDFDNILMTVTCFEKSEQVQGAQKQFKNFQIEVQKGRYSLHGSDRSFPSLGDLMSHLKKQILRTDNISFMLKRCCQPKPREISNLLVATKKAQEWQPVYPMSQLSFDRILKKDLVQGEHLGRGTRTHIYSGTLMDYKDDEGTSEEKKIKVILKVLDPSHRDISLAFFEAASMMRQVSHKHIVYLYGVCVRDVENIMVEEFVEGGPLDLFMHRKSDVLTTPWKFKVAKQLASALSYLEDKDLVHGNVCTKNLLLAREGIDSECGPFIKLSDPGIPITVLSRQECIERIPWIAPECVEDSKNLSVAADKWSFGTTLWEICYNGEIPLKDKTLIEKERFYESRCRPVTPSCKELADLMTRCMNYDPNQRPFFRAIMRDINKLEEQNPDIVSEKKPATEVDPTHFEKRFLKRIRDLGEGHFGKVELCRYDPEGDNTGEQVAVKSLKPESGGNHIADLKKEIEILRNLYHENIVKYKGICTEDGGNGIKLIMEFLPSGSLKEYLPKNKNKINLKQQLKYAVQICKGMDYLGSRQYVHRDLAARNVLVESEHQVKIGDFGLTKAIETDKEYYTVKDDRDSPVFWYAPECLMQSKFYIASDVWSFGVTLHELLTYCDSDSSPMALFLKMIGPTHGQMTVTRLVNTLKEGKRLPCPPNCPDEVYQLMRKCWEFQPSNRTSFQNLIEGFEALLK
# Procedure: JAK1 Isolated Enzyme High ATP Caliper Endpoint Assay
# 4 mM stock solutions of test compounds are prepared and serially diluted in 100% DMSO. A standard curve using PF-00956980 (commercially available from Sigma Aldrich) at a top concentration of 4 mM is also prepared. High percentage effect (HPE) is defined by 500 μM PF-00956980 and 0% effect (ZPE) is defined by 100% DMSO. Greiner 384 well plates are prepared containing 400 nl of serially diluted compound, standard and HPE/ZPE. Final top assay concentration is 80 μM as the assay dilution factor is fifty.
# JAK1 enzyme (Invitrogen) stock solution is made up at 5.2 μM in sterile water. JAK1 enzyme stock is diluted to 20 nM in assay buffer (10 mM HEPES free acid pH 7.5, 10 mM HEPES free base pH 7.5, 10 mM MgCL2, 0.0005% Tween-20, 0.01% BSA) containing 2 mM DTT (all supplied by Sigma) with the addition of one protease tablet per 25 mls buffer (Roche). ATP is made up at 10 mM stock in sterile water and diluted to 5 mM in assay buffer. Peptide H236 (Caliper Life Sciences) is made up at 1.5 mM in 100% DMSO and diluted to 3 μM in assay buffer. Stop buffer comprises 140 mM HEPES, 22.5 mM EDTA (Sigma) and 0.15% coating reagent (Caliper Life Sciences).
# Assays are performed in Greiner polypropylene 384 well plates. Following compound preparation within the plate 10 μl of enzyme in assay buffer containing DTT is added using a Multidrop Micro. Final assay concentration of enzyme is 10 nM. Compound and enzyme are pre-incubated for 30 minutes at room temperature using low evaporation lids before addition of 10 μl ATP/peptide mixture in assay buffer using a Multidrop Micro. Final assay concentrations are 2.5 mM ATP and 1.5 μM peptide. Plates are foil sealed and incubated for a further 120 minutes at room temperature. Stop solution is added to the plates (20 μl/well) using a Multidrop Micro and plates are loaded onto the Caliper EZReader II. Data is generated by the shift in mobility of non-phosphorylated peptide substrates and phosphorylated products by electrophoresis within a chip and detected via LED induced fluorescence. Data is analysed using LabChip EZReader software which calculates the relative heights of the substrate and product peaks and reports product/product plus substrate peak ratio. Test compound data are subsequently expressed as percentage inhibition defined by HPE and ZPE values for each plate. Percentage inhibition in the presence of test compound is plotted against compound concentration on a log scale to determine an IC50 from the resultant sigmoid curve.
# JAK3 enzyme, sequence (P52333 whole entry): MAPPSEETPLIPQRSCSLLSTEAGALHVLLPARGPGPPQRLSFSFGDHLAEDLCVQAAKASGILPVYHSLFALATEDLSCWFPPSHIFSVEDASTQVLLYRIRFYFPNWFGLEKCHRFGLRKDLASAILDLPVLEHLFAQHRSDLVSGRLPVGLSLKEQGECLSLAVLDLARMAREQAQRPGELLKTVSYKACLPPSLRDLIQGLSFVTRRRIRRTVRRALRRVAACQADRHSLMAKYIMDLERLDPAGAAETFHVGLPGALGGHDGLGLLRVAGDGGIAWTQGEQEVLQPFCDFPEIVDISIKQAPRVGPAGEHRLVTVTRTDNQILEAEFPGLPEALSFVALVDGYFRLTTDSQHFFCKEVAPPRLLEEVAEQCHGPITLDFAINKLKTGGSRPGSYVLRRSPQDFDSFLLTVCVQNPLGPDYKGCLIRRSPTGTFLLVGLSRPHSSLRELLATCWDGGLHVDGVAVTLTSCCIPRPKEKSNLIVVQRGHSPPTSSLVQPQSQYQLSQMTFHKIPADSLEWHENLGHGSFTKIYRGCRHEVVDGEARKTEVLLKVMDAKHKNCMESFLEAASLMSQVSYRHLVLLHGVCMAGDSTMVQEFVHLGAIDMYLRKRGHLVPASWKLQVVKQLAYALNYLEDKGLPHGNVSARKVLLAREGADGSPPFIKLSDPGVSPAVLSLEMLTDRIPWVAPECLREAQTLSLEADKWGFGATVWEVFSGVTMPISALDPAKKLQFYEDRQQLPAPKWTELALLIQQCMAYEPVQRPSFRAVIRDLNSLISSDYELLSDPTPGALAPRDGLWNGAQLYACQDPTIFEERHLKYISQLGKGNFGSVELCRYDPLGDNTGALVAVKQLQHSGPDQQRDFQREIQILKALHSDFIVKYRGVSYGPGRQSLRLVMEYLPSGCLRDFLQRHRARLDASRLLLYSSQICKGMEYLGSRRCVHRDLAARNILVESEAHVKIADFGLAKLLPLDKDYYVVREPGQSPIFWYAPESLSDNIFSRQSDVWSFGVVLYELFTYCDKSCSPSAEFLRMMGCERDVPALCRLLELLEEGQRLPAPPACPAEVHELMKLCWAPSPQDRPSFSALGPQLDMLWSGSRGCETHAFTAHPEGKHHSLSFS
Compound,IC50 (JAK3 enzyme) [nM],IC50 (JAK1 enzyme) [nM]
"CCc1cc(O)c(F)cc1-c1ccc2c(-c3nc4c([nH]3)CCN(C(=O)c3ccc(F)cc3)C4)n[nH]c2c1 [Example 1, {2-[6-(2-Ethyl-5-fluoro-4-hydroxy-phenyl)-1H-indazol-3-yl]-1,4,6,7-tetrahydro-imidazo[4,5-c]pyridin-5-yl}-(4-fluoro-phenyl)-methanone]",< 0.6,< 0.7
"CCc1cc(O)c(F)cc1-c1ccc2c(-c3nc4c([nH]3)CCN(C(=O)c3ccsn3)C4)n[nH]c2c1 [Example 2, {2-[6-(2-Ethyl-5-fluoro-4-hydroxy-phenyl)-1H-indazol-3-yl]-1,4,6,7-tetrahydro-imidazo[4,5-c]pyridin-5-yl}-isothiazol-3-yl-methanone]",0.5,46
"CCc1cc(O)c(F)cc1-c1ccc2c(-c3nc4c([nH]3)CCN(S(=O)(=O)c3ccc(N5CCOCC5)nc3)C4)n[nH]c2c1 [Example 6, 5-Ethyl-2-fluoro-4-{3-[5-(6-morpholin-4-yl-pyridine-3-sulfonyl)-4,5,6,7-tetrahydro-1H-imidazo[4,5-c]pyridin-2-yl]-1H-indazol-6-yl}-phenol]",1.3,8.4
"CCc1cc(O)c(F)cc1-c1ccc2c(-c3nc4c([nH]3)CCN(S(=O)(=O)c3ccc(Oc5ccccc5)nc3)C4)n[nH]c2c1 [Example 7, 5-Ethyl-2-fluoro-4-{3-[5-(6-phenoxy-pyridine-3-sulfonyl)-4,5,6,7-tetrahydro-1H-imidazo[4,5-c]pyridin-2-yl]-1H-indazol-6-yl}-phenol]",1.5,2.5
"CCc1cc(O)c(F)cc1-c1ccc2c(-c3nc4c([nH]3)CCN(C(=O)c3ccc(Cl)cn3)CC4)n[nH]c2c1 [Example 8, (5-Chloro-pyridin-2-yl)-{2-[6-(2-ethyl-5-fluoro-4-hydroxy-phenyl)-1H-indazol-3-yl]-4,5,7,8-tetrahydro-1H-imidazo[4,5-d]azebin-6-yl}-methanone]",1.4,2.9
"CCc1cc(O)c(F)cc1-c1ccc2c(-c3nc4c([nH]3)CCN(C(=O)c3cc(C#N)ccn3)CC4)n[nH]c2c1 [Example 9, 2-{2-[6-(2-Ethyl-5-fluoro-4-hydroxy-phenyl)-1H-indazol-3-yl]-4,5,7,8-tetrahydro-1H-imidazo[4,5-d]azepine-6-carbonyl}-isonicotinonitrile]",1.9,18.9
"CCc1cc(O)c(F)cc1-c1ccc2c(-c3nc4c([nH]3)CCN(C(=O)c3ccc(F)cc3)CC4)n[nH]c2c1 [Example 10, {2-[6-(2-Ethyl-5-fluoro-4-hydroxy-phenyl)-1H-indazol-3-yl]-4,5,7,8-tetrahydro-1H-imidazo[4,5-d]azepin-6-yl}-(4-fluoro-phenyl)-methanone]",1.3,4.5
"CCc1cc(O)c(F)cc1-c1ccc2c(-c3nc4c([nH]3)CCN(C(=O)c3ccsn3)CC4)n[nH]c2c1 [Example 11, {2-[6-(2-Ethyl-5-fluoro-4-hydroxy-phenyl)-1H-indazol-3-yl]-4,5,7,8-tetrahydro-1H-imidazo[4,5-d]azepin-6-yl}-isothiazol-3-yl-methanone]",1,2.5
"CCc1cc(O)c(F)cc1-c1ccc2c(-c3nc4c([nH]3)CCN(S(=O)(=O)c3ccc(F)cc3)C4)n[nH]c2c1 [Example 12, 5-Ethyl-2-fluoro-4-{3-[5-(4-fluoro-benzenesulfonyl)-4,5,6,7-tetrahydro-1H-imidazo[4,5-c]pyridin-2-yl]-1H-indazol-6-yl}-phenol]",1.6,1.2
"CCc1cc(O)c(F)cc1-c1ccc2c(-c3nc4c([nH]3)CCN(C(=O)c3cnc(Oc5ccccc5F)cn3)C4)n[nH]c2c1 [Example 13, {2-[6-(2-Ethyl-5-fluoro-4-hydroxy-phenyl)-1H-indazol-3-yl]-1,4,6,7-tetrahydro-imidazo[4,5-c]pyridin-5-yl}-[5-(2-fluoro-phenoxy)-Dvrazin-2-yl]-methanone]",3.6,1.5
"CCc1cc(O)c(F)cc1-c1ccc2c(-c3nc4c([nH]3)CCN(Cc3ccccc3)CC4)n[nH]c2c1 [Example 14, 4-[3-(6-Benzyl-1,4,5,6,7,8-hexahydro-imidazo[4,5-d]azepin-2-yl)-1H-indazol-6-yl]-5-ethyl-2-fluoro-phenol]",1.4,0.8
"CCc1cc(O)c(F)cc1-c1ccc2c(-c3nc4c([nH]3)CCN(C(=O)c3ccc(Cl)cn3)C4)n[nH]c2c1 [Example 15, (5-Chloro-pyridin-2-yl)-{2-[6-(2-ethyl-5-fluoro-4-hydroxy-phenyl)-1H-indazol-3-yl]-1,4,6,7-tetrahydro-imidazo[4,5-d]pyridin-5-yl}-methanone]",1,
"CCc1cc(O)c(F)cc1-c1ccc2c(-c3nc4c([nH]3)CCN(C(=O)c3ccc(C#N)nc3)C4)n[nH]c2c1 [Example 16, 5-{2-[6-(2-Ethyl-5-fluoro-4-hydroxy-phenyl)-1H-indazol-3-yl]-1,4,6,7-tetrahydro-imidazo[4,5-c]pyridine-5-carbonyl}-pyridine-2-carbonitrile]",1.9,0.7
"CCc1cc(O)c(F)cc1-c1ccc2c(-c3nc4c([nH]3)CCN(Cc3ccc(O)cc3)C4)n[nH]c2c1 [Example 19, 5-Ethyl-2-fluoro-4-{3-[5-(4-hydroxy-benzyl)-4,5,6,7-tetrahydro-1H-imidazo[4,5-c]pyridin-2-yl]-1H-indazol-6-yl}-phenol]",2.2,4.3
"CCc1cc(O)c(F)cc1-c1ccc2c(-c3nc4c([nH]3)CCN(Cc3cccc(O)c3)C4)n[nH]c2c1 [Example 20, 5-Ethyl-2-fluoro-4-{3-[5-(3-hydroxy-benzyl)-4,5,6,7-tetrahydro-1H-imidazo[4,5-c]pyridin-2-yl]-1H-indazol-6-yl}-phenol]",5.6,2.6
"CCc1cc(O)c(F)cc1-c1ccc2c(-c3nc4c([nH]3)CCN(Cc3ccnc(C#N)c3)C4)n[nH]c2c1 [Example 21, 4-{2-[6-(2-Ethyl-5-fluoro-4-hydroxy-phenyl)-1H-indazol-3-yl]-1,4,6,7-tetrahydro-imidazo[4,5-c]pyridin-5-ylmethyl}-pyridine-2-carbonitrile]",1.4,5.9
"CCc1cc(O)c(F)cc1-c1ccc2c(-c3nc4c([nH]3)CCN(Cc3cccc(OC)c3)C4)n[nH]c2c1 [Example 22, 5-Ethyl-2-fluoro-4-{3-[5-(3-methoxy-benzyl)-4,5,6,7-tetrahydro-1H-imidazo[4,5-c]pyridin-2-yl]-1H-indazol-6-yl}-phenol formic acid salt]",2.6,3
"CCc1cc(O)c(F)cc1-c1ccc2c(-c3nc4c([nH]3)CCN(Cc3cnc5ccccc5c3)C4)n[nH]c2c1 [Example 23, 5-Ethyl-2-fluoro-4-[3-(5-quinolin-3-ylmethyl-4,5,6,7-tetrahydro-1H-imidazo[4,5-c]pyridin-2-yl)-1H-indazol-6-yl]-phenol]",1.2,1.7
"CCc1cc(O)c(F)cc1-c1ccc2c(-c3nc4c([nH]3)CCN(Cc3ccc(Oc5ccccc5)nc3)C4)n[nH]c2c1 [Example 24, 5-Ethyl-2-fluoro-4-{3-[5-(6-phenoxy-pyridin-3-ylmethyl)-4,5,6,7-tetrahydro-1H-imidazo[4,5-c]pyridin-2-yl]-1H-indazol-6-yl}-phenol]",2.4,6.2
"CCc1cc(O)c(F)cc1-c1ccc2c(-c3nc4c([nH]3)CCN(Cc3ccc(N5CCCCC5)nc3)C4)n[nH]c2c1 [Example 25, 5-Ethyl-2-fluoro-4-{3-[5-(3,4,5,6-tetrahydro-2H-[1,2′]bipyridinyl-5′-ylmethyl)-4,5,6,7-tetrahydro-1H-imidazo[4,5-c]pyridin-2-yl]-1H-indazol-6-yl}-phenol]",,4
"CCc1cc(O)c(F)cc1-c1ccc2c(-c3nc4c([nH]3)CCN(Cc3cccnc3C#N)C4)n[nH]c2c1 [Example 26, 3-{2-[6-(2-Ethyl-5-fluoro-4-hydroxy-phenyl)-1H-indazol-3-yl]-1,4,6,7-tetrahydro-imidazo[4,5-c]pyridin-5-ylmethyl}-pyridine-2-carbonitrile]",4.1,4
"CCc1cc(O)c(F)cc1-c1ccc2c(-c3nc4c([nH]3)CCN(Cc3ccc5cccnc5n3)C4)n[nH]c2c1 [Example 28, 5-Ethyl-2-fluoro-4-[3-(5-[1,8]naphthyridin-2-ylmethyl-4,5,6,7-tetrahydro-1H-imidazo[4,5-c]pyridin-2-yl)-1H-indazol-6-yl]-phenol]",10.9,13.7
"O=C(c1cnc(N2CCCCC2)cn1)N1CCc2[nH]c(-c3n[nH]c4cc(-c5cc(F)c(O)cc5CC(F)(F)F)ccc34)nc2C1 [Example 29, (2-{6-[5-Fluoro-4-hydroxy-2-(2,2,2-trifluoro-ethyl)-pheny]-1H-indazol-3-yl}-1,4,6,7-tetrahydro-imidazo[4,5-c]pyridin-5-yl)-(5-piperidin-1-yl-pyrazin-2-yl)-methanone diethylamine salt]",42,1.1
"O=C(c1ccc(F)cc1)N1CCc2[nH]c(-c3n[nH]c4cc(-c5cc(F)c(O)cc5CC(F)(F)F)ccc34)nc2C1 [Example 30, (2-{6-[5-Fluoro-4-hydroxy-2-(2,2,2-trifluoro-ethyl)-phenyl]-1H-indazol-3-yl}-1,4,6,7-tetrahydro-imidazo[4,5-c]pyridin-5-yl)-(4-fluoro-phenyl)-methanone diethylamine salt]",6.7,7.7
"Oc1cc(CC(F)(F)F)c(-c2ccc3c(-c4nc5c([nH]4)CCN(Cc4ccccc4)C5)n[nH]c3c2)cc1F [Example 31, 4-[3-(5-Benzyl-4,5,6,7-tetrahydro-1H-imidazo[4,5-c]pyridin-2-yl)-1H-indazol-6-yl]-2-fluoro-5-(2,2,2-trifluoro-ethyl)-phenol diethylamine salt]",186,66
"{2-[6-(2-Ethyl-5-fluoro-4-hydroxy-phenyl)-1H-indazol-3-yl]-1,4,6,7-tetrahydro-imidazo[4,5-c]pyridin-5-yl}-isothiazol-3-yl-methanone [Example 3]",,3.7
